Like-named read-outs stand apart in the source and are kept apart here.
Legend:
[1] = tested on: hepatitis B virus; assay: Antiviral action on hepatitis B virus in HepG2.2.15 cells (HBV DNA dot-blot hybridization); format: cell-based; details: 50% reduction of intra- or extracellular hepatitis B-specific band
Method: The antiviral action of the compounds of the invention on hepatitis B virus is investigated by methods based on those described by M. A. Sells et al., Proc. Natl. Acad. Sci., 84, 1005-1009 (1987) and B. E. Korba et al., Antiviral Research 19, 55-70 (1992).
The antiviral tests are carried out in 96-well microtiter plates. The first vertical row of the plate receives only growth medium and HepG2.2.15 cells. It serves as virus control.
Stock solutions of the test compounds (50 mM) are initially dissolved in DMSO, and further dilutions are prepared in the HepG2.2.15 growth medium. The compounds according to the invention are usually pipetted in a test concentration of 100 μM (1st test concentration) in each case into the second vertical test row of the microtiter plate and subsequently diluted in twofold steps […] in growth medium plus 2% by weight of fetal calf serum (volume 25 μl)
Each well of the microtiter plate then contains 225 μl of HepG2.2.15 cell suspension (5×10^4 cells/ml) in growth medium plus 2% by weight of fetal calf serum. The test mixture is incubated at 37° C. and 5% CO2 (v/v) for 4 days.
The supernatant is then aspirated off and discarded, and the wells receive 225 μl of freshly prepared growth medium. The compounds according to the invention are each added anew as 10-fold concentrated solution in a volume of 25 μl. The mixtures are incubated for a further 4 days
The supernatant and/or cells are then harvested and sucked by means of a vacuum onto 96-well dot-blot chambers covered with a nylon membrane (in accordance with the manufacturer's information).
After the supernatants or lysed cells is transferred to the nylon membrane of the blot apparatus (see above), the intra- or extracellular supernatants of the HepG2.2.15 cells are denatured (1.5 M NaCl/0.5 N NaOH), neutralized (3 M NaCl/0.5M Tris HCl, pH 7.5) and washed (2×SSC). The DNA is then baked onto the membrane by incubating the filters at 120° C. for 2-4 hours.
Detection of the viral DNA from the treated HepG2.2.15 cells on the nylon filters is usually carried out with nonradioactive, digoxigenin-labeled hepatitis B-specific DNA probes, each of which is labeled with digoxigenin, purified and employed for the hybridization in accordance with the manufacturer's information.
The prehybridization and hybridization take place in 5×SSC, 1×blocking reagent, 0.1% by weight N-lauroylsarcosine, 0.02% by weight SDS and 100 μg of herring sperm DNA. The prehybridization takes place at 60° C. for 30 minutes, and the specific hybridization takes place with 20 to 40 ng/ml of the digoxigenized, denatured HBV-specific DNA (14 hours, 60° C.). The filters are then washed.
The immunological detection of the digoxigenin-labeled DNA took place in accordance with the manufacturer's information: […]

[2] = tested on: hepatitis B virus; details: examples of U.S. Pat. No. 7,074,784, values as described in that patent; cited from earlier work
[3] = Hepatitis B virus, HepG2.2.15, HepG2.2.15 cells

Structure (SMILES) | IC50 ([1]; HepG2.2.15 cells) [pM] | IC50 [2] [pM] | IC50 [1, 3] [pM]
COC(=O)C1=C(CN2CCOCC2)NC(c2nccs2)=NC1c1ccc(F)cc1Br (single isomer, unassigned; (-)) [(−)-6] | 200 | – | –
CCOC(=O)C1=C(CN2CCOCC2)NC(c2nccs2)=NC1c1ccc(F)cc1Br (centres unmarked) [Example 5, Ethyl 4-(2-bromo-4-fluorophenyl)-2-(thiazol-2-yl)-6-(4-morpholinylmethy)-1,4-dihydropyrimidine-5-carboxylic ester] | – | 2000 to 4000 | 200
COC(=O)C1=C(CN2CCOCC2)NC(c2nccs2)=NC1c1ccc(F)cc1Br (centres unmarked) [Example 6, Methyl 4-(2-bromo-4-fluorophenyl)-2-(thiazol-2-yl)-6-(4-morpholinylmethy)-1,4-dihydropyrimidine-5-carboxylic ester] | – | – | 300
CCOC(=O)C1=C(CN2CCOCC2)NC(c2nccs2)=NC1c1ccc(F)cc1Br (single isomer, unassigned; (-)) [(−)-5] | 100 | – | –

Reference: patent USRE44987E1, “Bromo-phenyl substituted thiazolyl dihydropyrimidines” (Sunshine Lake Pharma Co., Ltd., priority 2007, dated 2014)
